Source: ChEMBL document CHEMBL1201862, “PubChem BioAssay data set” (2004)
Values joined by “and” are separate entries in the source; they are usually repeats but may differ in a detail not shown here. Equal entries are not always repeated. Active and inactive are the calls of the source.

Legend:
Vero = assay: cells; format: functional; settings: Chlorocebus sabaeus
[1] = target: DNA damage-inducible transcript 3 protein (Mus musculus, UniProt P35639); format: functional, Cricetulus griseus
Streptokinase A = target: T1, Streptokinase A (Streptococcus pyogenes serotype M1, UniProt P10520); assay: viability-normalized secreted streptokinase activity reduction – plasminogen activation absorbance, OD405, dose response (AID 1914); format: functional, Streptococcus pyogenes M1 GAS;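 note: secreted streptokinase activity via plasminogen activation per viability signal from cell pellet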
T1 sequence (P10520 whole entry): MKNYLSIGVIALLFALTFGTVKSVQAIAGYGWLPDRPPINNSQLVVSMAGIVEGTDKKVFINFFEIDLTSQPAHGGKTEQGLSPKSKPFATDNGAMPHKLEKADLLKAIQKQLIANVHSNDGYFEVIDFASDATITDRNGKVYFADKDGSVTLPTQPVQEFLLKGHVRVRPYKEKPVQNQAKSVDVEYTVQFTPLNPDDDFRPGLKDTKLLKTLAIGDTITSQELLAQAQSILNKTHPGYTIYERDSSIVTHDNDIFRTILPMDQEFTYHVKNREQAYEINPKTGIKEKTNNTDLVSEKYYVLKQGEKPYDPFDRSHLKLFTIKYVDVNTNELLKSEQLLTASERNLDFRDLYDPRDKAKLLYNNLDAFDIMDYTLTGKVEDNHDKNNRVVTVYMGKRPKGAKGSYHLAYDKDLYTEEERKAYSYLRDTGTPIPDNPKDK

[2] = tested on: Streptococcus sp. 'group A'; assay: Streptococcus pyogenes SK(-)GAS viability under kanamycin – luminescence, BacTiterGlo, confirmation, counter-screen for streptokinase expression inhibitor project, dose response (AID 1900); format: functional, organism-based
Streptococcus = assay: GAS UMAA2166 growth inhibition – luminescence, BacTiterGlo, counter-screen for streptokinase expression inhibitor project, dose response (AID 1915); format: functional, organism-based;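 note: potency for reduction of bacterial viability or growth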
[3] = HEK-293T cell viability reduction – luminescence, B-cell screen hits, cytotoxicity control for BCR NF-kB inhibitor project, dose response (AID 489021); format: functional, cell-based;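 note: HEK-293T cells carrying an NF-kB luciferase reporter; cells exposed to compound for about 14 hours before viability readout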
Troponin, cardiac muscle = Troponin, cardiac muscle (Homo sapiens, UniProt P19429+P45379+P63316); assay: Fluorescence-based biochemical high throughput dose response assay for activators of the calcium sensitivity of cardiac Regulated Thin Filaments (RTF). [Related pubchem assays (depositor defined):AID493008, AID493018, AID504382, AID504383]; format: protein-complex assay
[4] = target: T2, Runt-related transcription factor 1/Core-binding factor subunit beta (Homo sapiens, UniProt Q01196+Q13951); assay: Runt domain/CBFb-SMMHC interaction disruptors – biochemical, TR-FRET (AID 1438); format: protein assay
[5] = target: T2, Runt-related transcription factor 1/Core-binding factor subunit beta; assay: disruptors of Runt domain/CBFb-SMMHC interaction – biochemical, FRET, Cerulean-Runt, Venus-CBFb-SMMHC, uHTS, […] (AID 1434); format: protein assay
[6] = viability of HCT116 lacking mutant beta-catenin – cell-based, human colon tumor, dose response (AID 1045); format: functional;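 note: HCT116 colon tumor cells with beta catenin knocked out; cells exposed to compound for 60 hours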
[7] = target: T3, Zinc finger protein mex-5 (Caenorhabditis elegans, UniProt Q9XUB2); assay: potency of MEX-5 RNA-binding blockers – biochemical, C. elegans, fluorescence polarization, dose response (AID 1960)
T3 sequence (Q9XUB2 whole entry): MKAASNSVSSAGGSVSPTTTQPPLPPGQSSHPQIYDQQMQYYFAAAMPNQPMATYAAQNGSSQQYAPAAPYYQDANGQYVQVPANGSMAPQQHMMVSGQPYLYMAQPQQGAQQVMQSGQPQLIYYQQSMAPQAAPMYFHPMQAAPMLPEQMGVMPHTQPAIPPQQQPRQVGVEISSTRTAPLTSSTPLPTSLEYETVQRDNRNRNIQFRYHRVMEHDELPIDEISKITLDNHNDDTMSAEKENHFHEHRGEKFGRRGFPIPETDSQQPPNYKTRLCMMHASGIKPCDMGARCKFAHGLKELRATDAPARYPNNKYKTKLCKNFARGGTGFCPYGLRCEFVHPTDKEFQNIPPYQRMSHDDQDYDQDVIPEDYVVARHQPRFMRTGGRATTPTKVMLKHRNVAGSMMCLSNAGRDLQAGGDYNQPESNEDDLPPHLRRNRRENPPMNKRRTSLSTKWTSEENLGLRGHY

[8] = target: FAD-linked sulfhydryl oxidase ALR (Homo sapiens, UniProt P55789); assay: ALR-catalysed DTT oxidation blockers – biochemical, H2O2 detection, luminescence, cherry-pick, dose response (AID 493248)
Aspartyl aminopeptidase = target: T4, Aspartyl aminopeptidase (Plasmodium falciparum 3D7, UniProt Q8I2J3)
T4 sequence (Q8I2J3 whole entry): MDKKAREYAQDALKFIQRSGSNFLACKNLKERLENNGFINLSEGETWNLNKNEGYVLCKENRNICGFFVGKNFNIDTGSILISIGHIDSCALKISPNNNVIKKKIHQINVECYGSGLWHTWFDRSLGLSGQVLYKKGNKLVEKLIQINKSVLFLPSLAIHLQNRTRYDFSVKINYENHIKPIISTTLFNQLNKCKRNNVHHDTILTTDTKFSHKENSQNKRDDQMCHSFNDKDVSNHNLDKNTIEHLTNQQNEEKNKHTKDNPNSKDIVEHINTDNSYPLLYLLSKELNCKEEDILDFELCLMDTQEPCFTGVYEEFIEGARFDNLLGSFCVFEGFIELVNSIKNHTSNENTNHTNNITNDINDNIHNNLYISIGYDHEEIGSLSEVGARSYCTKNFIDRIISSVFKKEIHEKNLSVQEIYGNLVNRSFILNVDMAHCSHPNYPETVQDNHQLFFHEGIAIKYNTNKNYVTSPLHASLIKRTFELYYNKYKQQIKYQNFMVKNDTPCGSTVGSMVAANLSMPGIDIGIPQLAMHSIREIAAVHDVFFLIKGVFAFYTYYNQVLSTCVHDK

Procathepsin L = Procathepsin L (Homo sapiens, UniProt P07711)
[9] = viability of PTEN-deleted HCT116 cells – cell-based, HCT116 PTEN knockout, dose response (AID 1047); format: functional;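 note: HCT116 colon tumor cells with PTEN knocked out; cells exposed to compound for 60 hours before readout; potency for loss of cell viability measured by luminescence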
Large T antigen = Large T antigen (Simian virus 40, UniProt P03070); format: functional, Betapolyomavirus macacae;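 note: Confirmatory-stage PubChem screen for compounds that inhibit SV40 T antigen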
[10] = target: T5, RNA-binding protein pos-1 (Caenorhabditis elegans, UniProt G5EF15); assay: disruptors of C. elegans POS-1 RNA interaction – biochemical, fluorescence polarization, dose response (AID 1964);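 note: purified POS-1 fused to maltose binding protein made in E. coli; potency of compounds blocking POS-1 binding to fluorescent RNA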
T5 sequence (G5EF15 whole entry): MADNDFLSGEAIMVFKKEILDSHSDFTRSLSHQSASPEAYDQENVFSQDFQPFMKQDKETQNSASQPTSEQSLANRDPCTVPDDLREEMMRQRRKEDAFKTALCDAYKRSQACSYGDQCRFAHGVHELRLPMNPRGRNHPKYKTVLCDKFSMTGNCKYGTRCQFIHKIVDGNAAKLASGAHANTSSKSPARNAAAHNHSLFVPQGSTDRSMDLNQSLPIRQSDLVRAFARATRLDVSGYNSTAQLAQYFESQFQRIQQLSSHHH

[11] = viability loss of HPDE-C7K cells – cell-based, fluorescence, HTS, primary screen (AID 431); format: functional; settings: Homo sapiens
X-box-binding protein 1 = X-box-binding protein 1 (Homo sapiens, UniProt P17861); format: functional, Cricetulus griseus;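 note: confirmatory dose-response counter-screen serving a CHOP assay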
Cytochrome P450 1A2 = target: T6, Cytochrome P450 1A2 (Homo sapiens, UniProt P05177);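 note: PubChem cytochrome P450 panel assay, CYP1A2 panel member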
T6 sequence (P05177 whole entry): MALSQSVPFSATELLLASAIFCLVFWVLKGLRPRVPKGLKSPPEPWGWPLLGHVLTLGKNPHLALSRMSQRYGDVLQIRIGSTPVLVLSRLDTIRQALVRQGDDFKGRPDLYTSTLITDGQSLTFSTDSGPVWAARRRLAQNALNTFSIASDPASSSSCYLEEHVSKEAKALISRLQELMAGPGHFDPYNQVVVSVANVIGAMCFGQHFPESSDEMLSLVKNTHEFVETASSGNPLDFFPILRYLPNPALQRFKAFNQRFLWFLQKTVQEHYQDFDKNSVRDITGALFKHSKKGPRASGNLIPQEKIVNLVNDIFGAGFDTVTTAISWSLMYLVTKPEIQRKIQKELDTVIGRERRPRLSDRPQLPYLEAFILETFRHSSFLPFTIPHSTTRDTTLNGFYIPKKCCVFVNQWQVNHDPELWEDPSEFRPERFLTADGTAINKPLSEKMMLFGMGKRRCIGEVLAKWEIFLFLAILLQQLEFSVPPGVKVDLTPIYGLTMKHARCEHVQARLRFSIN

[12] = Luminescence Cell-Based Dose Retest to Confirm Inhibitors of Cancer Stem Cells. [Related pubchem assays (depositor defined):AID2717, AID2721]; format: functional; settings: Homo sapiens
[13] = HPDE-C7 pancreatic duct cell viability loss – fluorescence, HTS (AID 430); format: functional, cell-based; settings: Homo sapiens
Cytochrome P450 3A4 = Cytochrome P450 3A4 (Homo sapiens, UniProt P08684);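 note: CYP3A4 tested as one member of a cytochrome P450 panel screen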
[14] = target: RNA-editing ligase 1, mitochondrial (Trypanosoma brucei brucei, UniProt P86926); assay: inhibition of trypanosome RNA editing ligase – biochemical, fluorescence, Trypanosoma brucei, dose response (AID 1117295); format: functional
[15] = target: T7, Apoptotic protease-activating factor 1 (Homo sapiens, UniProt O14727); format: functional
T7 sequence (O14727 whole entry): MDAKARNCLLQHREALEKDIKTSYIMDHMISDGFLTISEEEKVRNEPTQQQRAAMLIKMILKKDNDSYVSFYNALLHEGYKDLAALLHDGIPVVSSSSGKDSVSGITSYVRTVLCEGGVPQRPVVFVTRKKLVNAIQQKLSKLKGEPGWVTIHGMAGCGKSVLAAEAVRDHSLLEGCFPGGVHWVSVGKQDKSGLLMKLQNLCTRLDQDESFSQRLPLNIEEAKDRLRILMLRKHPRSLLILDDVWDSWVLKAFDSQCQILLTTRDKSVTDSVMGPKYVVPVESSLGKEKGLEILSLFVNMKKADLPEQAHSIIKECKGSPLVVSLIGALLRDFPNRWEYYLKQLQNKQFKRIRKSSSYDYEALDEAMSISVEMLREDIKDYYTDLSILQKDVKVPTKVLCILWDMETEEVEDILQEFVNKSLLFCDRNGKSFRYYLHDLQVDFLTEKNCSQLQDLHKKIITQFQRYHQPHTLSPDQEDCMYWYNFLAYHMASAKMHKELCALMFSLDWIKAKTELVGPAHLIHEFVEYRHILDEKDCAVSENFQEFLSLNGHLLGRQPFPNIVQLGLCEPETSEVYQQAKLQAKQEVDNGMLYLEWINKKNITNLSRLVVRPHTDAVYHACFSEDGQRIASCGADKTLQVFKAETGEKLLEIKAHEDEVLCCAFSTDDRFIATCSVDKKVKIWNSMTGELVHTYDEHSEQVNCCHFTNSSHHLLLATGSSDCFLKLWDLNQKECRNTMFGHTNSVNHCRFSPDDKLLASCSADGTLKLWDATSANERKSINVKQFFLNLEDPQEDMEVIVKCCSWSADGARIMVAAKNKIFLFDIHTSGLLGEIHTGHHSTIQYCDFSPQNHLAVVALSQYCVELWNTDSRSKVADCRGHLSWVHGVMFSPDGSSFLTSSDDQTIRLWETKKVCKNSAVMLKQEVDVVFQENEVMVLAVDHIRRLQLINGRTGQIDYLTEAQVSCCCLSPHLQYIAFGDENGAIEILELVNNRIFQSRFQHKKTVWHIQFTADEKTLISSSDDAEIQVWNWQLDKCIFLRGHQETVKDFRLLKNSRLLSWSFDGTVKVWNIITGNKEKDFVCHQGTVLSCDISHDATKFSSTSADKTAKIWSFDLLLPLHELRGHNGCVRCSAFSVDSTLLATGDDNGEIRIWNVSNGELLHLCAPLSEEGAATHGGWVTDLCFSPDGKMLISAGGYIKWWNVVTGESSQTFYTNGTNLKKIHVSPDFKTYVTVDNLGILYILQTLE

[16] = viability of uninfected HEp-2 cells – cell-based, HTS, cytotoxicity control for RSV inhibitor project, dose response (AID 2410); format: functional; settings: human respiratory syncytial virus
[17] = target: Lysosomal acid glucosylceramidase (Homo sapiens, UniProt P04062); assay: Dose response cell-based high throughput screening assay to identify enhancers of beta-glucosidase activity. [Related pubchem assays: 784 ]; format: functional

## O=C(CN1c2ccccc2Sc2ccccc21)NNC(=O)Nc1cccc(Cl)c1
Vero
  CC50: 19 µM (active)
[1]
  Absolute IC50 (CHOP): 10 µM
Streptokinase A
  EC50: > 150 µM (not active)
[2]
  EC50: 4.41 µM (active)
Streptococcus
  EC50: 18.5 µM (active)

## C(=N\Nc1nc(Nc2ccccc2)nc(Nc2ccccc2)n1)/c1cccnc1
[3]
  IC50: 41.3 µM (inactive)

## O=C(Nc1ccc(Cl)cn1)C1COc2ccccc2O1 (centres undefined)
Troponin, cardiac muscle
  EC50: > 71.5 µM (inactive)

## Cc1cc(=O)oc2c3c4c(cc12)OCCN4CCC3
[4]
  IC50: > 100 µM (inactive)
[5]
  IC50: < 0.195 µM (inactive)

## Oc1ccc(O)c(-c2cnns2)c1
[6]
  EC50: 365 µM (active)
[7]
  EC50: 6.91 µM (active)
[8]
  AC50: 4.57 µM (active)
Aspartyl aminopeptidase
  IC50: 1.89 µM (active)
[4]
  IC50: 20.5 µM (active)
Procathepsin L
  IC50: > 59.6 µM (not active)
[9]
  EC50: 47.1 µM (active)
Large T antigen
  IC50: 10 µM (active)
[5]
  IC50: 33.8 µM (active)
[10]
  EC50: > 300 µM (not active)

## CCOc1ccc(-c2nnc(SCC(=O)NC3CC3)o2)cc1
[3]
  IC50: > 80 µM (inactive)

## O=c1[nH]c2ccccc2n1C1CCN(CCCC(c2ccc(F)cc2)c2ccc(F)cc2)CC1 [PIMOZIDE]
[11]
  EC50: 18.9 µM (active)
[6]
  EC50: 7.54 µM (active)
X-box-binding protein 1
  Absolute IC50 (XBP1): < 10 µM
Cytochrome P450 1A2
  AC50: 31.6 µM (inconclusive) and 15.8 µM (inconclusive)
[9]
  EC50: 6.38 µM (active)
[12]
  AC50: 3.79 µM (active)
[13]
  EC50: 13.6 µM (active)
Cytochrome P450 3A4
  AC50: inconclusive

## CCC(C)NC(=O)c1c(N)n(CC2CCCO2)c2nc3ccccc3nc12 (centres undefined)
[1]
  Absolute IC50 (CHOP): 10 µM
[14]
  IC50: 27.7 µM (inactive)
[15]
  IC50: 18.8 µM (active)
[16]
  CC50: 20.3 µM (active)
[17]
  EC50: > 50 µM (not active)

## Fc1ccc(-c2n[nH]cc2CN(CC2CCC2)CC2CCCO2)c(F)c1 (centres undefined)
Troponin, cardiac muscle
  EC50: > 71.5 µM (inactive)
